The assay deals with T1, IRAK-4 enzyme (Homo sapiens, UniProt Q9NWZ3).
T1 construct: purchased Millipore, USA
T1 sequence (Q9NWZ3 1-460): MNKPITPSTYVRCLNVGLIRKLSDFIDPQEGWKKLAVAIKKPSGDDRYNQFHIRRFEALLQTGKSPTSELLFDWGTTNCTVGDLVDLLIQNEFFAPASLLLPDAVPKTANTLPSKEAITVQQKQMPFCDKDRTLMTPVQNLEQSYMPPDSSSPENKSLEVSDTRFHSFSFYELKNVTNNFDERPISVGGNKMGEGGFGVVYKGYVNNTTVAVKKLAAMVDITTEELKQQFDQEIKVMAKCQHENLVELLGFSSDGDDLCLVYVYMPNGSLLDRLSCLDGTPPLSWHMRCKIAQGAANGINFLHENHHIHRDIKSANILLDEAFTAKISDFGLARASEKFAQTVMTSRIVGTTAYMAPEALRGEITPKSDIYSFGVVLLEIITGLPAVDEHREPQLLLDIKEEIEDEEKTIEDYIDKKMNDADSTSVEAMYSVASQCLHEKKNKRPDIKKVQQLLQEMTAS
As to the kind of experiment: IRAK-4 Biochemical Assay (TR-FRET). The conditions noted are these: recombinant IRAK-4 kinase, 20 μM ATP. As for the experimental part: Compounds were tested for their potential to inhibit IRAK-4 enzyme in a TR-FRET assay using recombinant IRAK-4 kinase from Millipore, USA. The assay buffer was 50 mM Tris-HCl pH 7.5, 20 mM MgCl2, 1 mM EGTA, 2 mM DTT, 3 mM MnCl2 and 0.01% Tween 20.5 ng of IRAK-4 kinase was used for the assay. After pre-incubation of enzyme with test compound for 30 minutes at room temperature, a substrate mixture containing 100 nM Biotin Histone H3 (Millipore, USA) and 20 μM ATP (Sigma, USA) was added and the reaction was incubated for 30 min. Post incubation, the reaction was stopped by the addition of stop mix containing 40 mM EDTA, 1 nM of Europium-Anti-Phospho-Histone H3 (Ser10) antibody (Perkin Elmer, USA) and 20 nM SureLight Allophycocyanin-Streptavidin (Perkin Elmer, USA). The fluorescence emission at 615 nm and 665 nm were measured at an excitation of 340 nm and the percent inhibition was estimated from the ratio of the fluorescence intensities [(F665/F615)×10000].
The compounds of the present invention were screened in the above mentioned assay and the percent inhibition data is summarized in the Table 1.
(TR-FRET usually uses a lanthanide donor and a delayed reading to cut background.)

Where a name gives a salt, the structure may show the parent alone.

As usually defined, the inhibition is the change of the read-out against control, counted positive when it falls. On to `Cc1ccc(C(=O)Nc2cc3cn(C)nc3cc2N2CCCCC2)nc1N1CCC(O)C1` (stereo not shown) [Example 59, 6-(3-hydroxypyrrolidin-1-yl)-5-methyl-N-(2-methyl-6-(piperidin-1-yl)-2H-indazol-5-yl)picolinamide], for which, for the setting “0.1 μM compound”, the inhibition at 0.1 µM was 74%. In addition, where the note is “1 μM compound”, the inhibition at 1 µM was 91%. Taken in the same sequence, the figures for `Cn1cc2cc(NC(=O)c3ccc(N4CCC(O)C4)cn3)c(N3CCCCC3)nc2n1` (stereo not shown) [Example 40, 5-(3-hydroxypyrrolidin-1-yl)-N-(2-methyl-6-(piperidin-1-yl)-2H-pyrazolo[3,4-b]pyridin-5-yl)picolinamide] were 0% and 57%. Take `Cc1cc(-c2nc(C(=O)Nc3cc4cnn(CCCN5CCOCC5)c4cc3N3CCC(O)CC3)co2)ccn1` [Example 5, N-(6-(4-hydroxypiperidin-1-yl)-1-(3-morpholinopropyl)-1H-indazol-5-yl)-2-(2-methylpyridin-4-yl)oxazole-4-carboxamide]: for the setting “0.1 μM compound”, the inhibition at 0.1 µM turned out to be 94%. For the same compound, under “1 μM compound”, the inhibition at 1 µM stood at 99%. Take `O=C(Nc1cc2cnn(C3CCNCC3)c2cc1C1CC1)c1cccc(N2CCC(O)C2)n1` (stereo not shown) [Example 32, N-(6-cyclopropyl-1-(piperidin-4-yl)-1H-indazol-5-yl)-6-(3-hydroxypyrrolidin-1-yl)picolinamide hydrochloride]: the inhibition at 0.1 µM (0.1 μM compound) was 19%. For the same compound, for the setting “1 μM compound”, the inhibition at 1 µM is 80%.

`Cc1cc(-c2nc(C(=O)Nc3cc4cn(C)nc4nc3N3CC[C@H](O)C3)co2)ccn1` [Example 21, (S)—N-(6-(3-hydroxypyrrolidin-1-yl)-2-methyl-2H-pyrazolo[3,4-b]pyridin-5-yl)-2-(2-methylpyridin-4-yl)oxazole-4-carboxamide]: the inhibition at 1 µM (1 μM compound) is 89%. As for `Cc1nn(C)c2cc(N3CCC(CO)CC3)c(NC(=O)c3coc(-c4cc(N)ncc4Cl)n3)cc12` [Example 38, 2-(2-amino-5-chloropyridin-4-yl)-N-(6-(4-(hydroxymethyl)piperidin-1-yl)-1,3-dimethyl-1H-indazol-5-yl)oxazole-4-carboxamide hydrochloride], the inhibition at 0.1 µM (0.1 μM compound) amounted to 50%. For the same compound, the inhibition at 1 µM (1 μM compound) was 90%.

With `Cn1cc2cc(NC(=O)c3cncc(N4CCC(O)C4)n3)c(N3CCCCC3)cc2n1` (stereo not shown) [Example 65, 6-(3-hydroxypyrrolidin-1-yl)-N-(2-methyl-6-(piperidin-1-yl)-2H-indazol-5-yl)pyrazine-2-carboxamide], the inhibition at 0.1 µM (0.1 μM compound) was 91%. Also, where the note is “1 μM compound”, the inhibition at 1 µM is 98%. For `Cn1cc2cc(NC(=O)c3cccc(N4CC[C@H](O)C4)n3)c(N3CCCCC3)nc2n1` [Example 14, (S)-6-(3-hydroxypyrrolidin-1-yl)-N-(2-methyl-6-(piperidin-1-yl)-2H-pyrazolo[3,4-b]pyridin-5-yl)picolinamide] the same measures were 57% and 94%. As for `Cn1cc2cc(NC(=O)c3coc(N4CC[C@H](O)C4)n3)c(N3CCCCC3)nc2n1` [Example 18, (S)-2-(3-hydroxypyrrolidin-1-yl)-N-(2-methyl-6-(piperidin-1-yl)-2H-pyrazolo[3,4-b]pyridin-5-yl)oxazole-4-carboxamide], the inhibition at 1 µM (1 μM compound) worked out at 93%. Take `Cn1cc2cc(NC(=O)c3cncc(N4CCC(O)C4)n3)c(C3CC3)cc2n1` (stereo not shown) [Example 66, N-(6-cyclopropyl-2-methyl-2H-indazol-5-yl)-6-(3-hydroxypyrrolidin-1-yl)pyrazine-2-carboxamide hydrochloride]: the inhibition at 0.1 µM (0.1 μM compound) is 23%. Besides, the inhibition at 1 µM (1 μM compound) was determined as 75%. For the compound `Cl.Cn1cc2cc(NC(=O)c3cncc(N4CCC(O)C4)n3)c(N3CCCCC3)cc2n1` (stereo not shown) [Example 67, 6-(3-hydroxypyrrolidin-1-yl)-N-(2-methyl-6-(piperidin-1-yl)-2H-indazol-5-yl)pyrazine-2-carboxamide hydrochloride], the “% inhibition of IRAK-4 activity @0.1 μM” value (0.1 μM compound) is on record as 82%. In addition, the “% inhibition of IRAK-4 activity @1 μM” value (1 μM compound) came out at 92%.

Regarding `Cc1cc(-c2nc(C(=O)Nc3cc4cnn(C)c4nc3N3CCCCC3)co2)ccn1` [Example 16, N-(1-methyl-6-(piperidin-1-yl)-1H-pyrazolo[3,4-b]pyridin-5-yl)-2-(2-methylpyridin-4-yl)oxazole-4-carboxamide], for the setting “0.1 μM compound”, the inhibition at 0.1 µM came out at 99%. The inhibition at 1 µM (1 μM compound) amounted to 99%.

Turning to `COCCn1nc(C)c2cc(NC(=O)c3coc(-c4ccnc(N)c4)n3)c(N3CCC(O)CC3)cc21` [Example 9, 2-(2-aminopyridin-4-yl)-N-(6-(4-hydroxypiperidin-1-yl)-1-(2-methoxyethyl)-3-methyl-1H-indazol-5-yl)oxazole-4-carboxamide], under “0.1 μM compound”, the inhibition at 0.1 µM amounted to 97%. In addition, under “1 μM compound”, the inhibition at 1 µM amounted to 99%. For `Cn1cc2cc(NC(=O)c3cccc(N4CC[C@H](N)C4)n3)c(N3CCCCC3)nc2n1` [Example 15, (S)-6-(3-aminopyrrolidin-1-yl)-N-(2-methyl-6-(piperidin-1-yl)-2H-pyrazolo[3,4-b]pyridin-5-yl)picolinamide] the same measures were 34% and 78%. For `Cc1cc(-c2nc(C(=O)Nc3cc4c(C)n(C)nc4nc3N3CCCCC3)co2)ccn1` [Example 26, N-(2,3-dimethyl-6-(piperidin-1-yl)-2H-pyrazolo[3,4-b]pyridin-5-yl)-2-(2-methylpyridin-4-yl)oxazole-4-carboxamide] the same measures were 94% and 97%. On to `Cn1cc2cc(NC(=O)c3cc(N4CCC(O)C4)ccn3)c(N3CCCCC3)cc2n1` (stereo not shown) [Example 69, 4-(3-hydroxypyrrolidin-1-yl)-N-(2-methyl-6-(piperidin-1-yl)-2H-indazol-5-yl)picolinamide], for which the inhibition at 0.1 µM (0.1 μM compound) amounted to 7%. The inhibition at 1 µM (1 μM compound) is 9%. Taken in the same sequence, the figures for `COCCCn1ncc2cc(NC(=O)c3coc(-c4ccnc(C)c4)n3)c(N3CCC(O)CC3)cc21` [Example 4, N-(6-(4-hydroxypiperidin-1-yl)-1-(3-methoxypropyl)-1H-indazol-5-yl)-2-(2-methylpyridin-4-yl)oxazole-4-carboxamide hydrochloride] were 95% and 99%.

Consider `Cn1cc2cc(NC(=O)c3coc(-c4ccnc(N)c4)n3)c(N3CCCCC3)nc2n1` [Example 24], for which the inhibition at 0.1 µM (0.1 μM compound) amounted to 99%. For the same compound, the inhibition at 1 µM (1 μM compound) was found to be 99%. `Cn1cc2cc(NC(=O)c3cccc(N4CCC(O)C4)n3)c(N3CCOCC3)cc2n1` (stereo not shown) [Example 68, 6-(3-hydroxypyrrolidin-1-yl)-N-(2-methyl-6-morpholino-2H-indazol-5-yl)picolinamide]: where the note is “0.1 μM compound”, the inhibition at 0.1 µM turned out to be 75%. Further, the inhibition at 1 µM (1 μM compound) was 96%. Taken in the same sequence, the figures for `Cn1cc2cc(NC(=O)c3coc(-c4cccc(N)n4)n3)c(N3CCOCC3)cc2n1` [Example 42, 2-(6-aminopyridin-2-yl)-N-(2-methyl-6-morpholino-2H-indazol-5-yl)oxazole-4-carboxamide] were 86% and 97%.

As to `O=C(Nc1cc2cn(CCN3CCOCC3)nc2cc1N1CCCCC1)c1cccc(N2CCC(O)C2)n1` (stereo not shown) [Example 64, 6-(3-hydroxypyrrolidin-1-yl)-N-(2-(2-morpholinoethyl)-6-(piperidin-1-yl)-2H-indazol-5-yl)picolinamide], the inhibition at 0.1 µM (0.1 μM compound) is 96%. Further, the inhibition at 1 µM (1 μM compound) amounted to 97%.

(Values after patent US20180201609A1 (AURIGENE DISCOVERY TECHNOLOGIES LIMITED, priority 2015, published 2018).)
